Measurements from PubChem BioAssay AID1963843 (Molecular Pharmacology Branch, DTP, NCI, 2024).

System: 616215-338-R-J1-PDC complex spheroid viability
Assay: Anticancer human tumor 616215-338-R-J1-PDC patient-derived colon adenocarcinoma cell line growth inhibition [POLQ]
Details: for IC50: curve of first compound; for viability, T/C: stronger effect = lower value
How it was run: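 Complex spheroid viability model combining PDC tumour cells with endothelial (HUVEC) and MSC stromal cells. Novobiocin, ART-558 or RP6685 were tested singly and in combination with standard and investigational anticancer drugs. Each was titrated in half-log steps from near clinical Cmax, or from 10 microM where Cmax was unknown.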

[1] = second compound 0.0316 µM, first compound 0.0316 µM
[2] = second compound 0.0316 µM, first compound 0.1 µM
[3] = second compound 0.0316 µM, first compound 0.316 µM
[4] = second compound 0.0316 µM, first compound 1 µM
[5] = second compound 0.1 µM, first compound 0.0316 µM
[6] = second compound 0.1 µM, first compound 0.1 µM
[7] = second compound 0.1 µM, first compound 0.316 µM
[8] = second compound 0.1 µM, first compound 1 µM
[9] = second compound 0.316 µM, first compound 0.0316 µM
[10] = second compound 0.316 µM, first compound 0.1 µM
[11] = second compound 0.316 µM, first compound 0.316 µM
[12] = second compound 0.316 µM, first compound 1 µM
[13] = second compound 1 µM, first compound 0.0316 µM
[14] = second compound 1 µM, first compound 0.1 µM
[15] = second compound 1 µM, first compound 0.316 µM
[16] = second compound 1 µM, first compound 1 µM
[17] = second compound 3.16 µM, first compound 0.0316 µM
[18] = second compound 3.16 µM, first compound 0.1 µM
[19] = second compound 3.16 µM, first compound 0.316 µM
[20] = second compound 3.16 µM, first compound 1 µM
[21] = second compound 10 µM, first compound 0.0316 µM
[22] = second compound 10 µM, first compound 0.1 µM
[23] = second compound 10 µM, first compound 0.316 µM
[24] = second compound 10 µM, first compound 1 µM
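Further: spheroids exposed to compounds for one week before readout.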
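Wherever viability, T/C is given: percent viability relative to DMSO vehicle wells taken as 100%.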

SMILES: C=CCn1c(=O)c2cnc(Nc3ccc(N4CCN(C)CC4)cc3)nc2n1-c1cccc(C(C)(C)O)n1 + Cc1cccc(N(C)C(=O)C2C(O)CCN2c2nc(C)cc(C(F)(F)F)c2C#N)c1
- IC50 (second compound 0.0316 µM): 269 nM
- IC50 (second compound 0.1 µM): 542 nM
- IC50 (second compound 0.316 µM): 559 nM
- IC50 (second compound 1 µM): 428 nM
- IC50 (second compound 3.16 µM): 333 nM
- IC50 (second compound 10 µM): 250 nM
- viability, T/C (second compound 0.0316 µM, first compound 0.00316 µM): 110%
- viability, T/C (second compound 0.0316 µM, first compound 0.01 µM): 87.5%
- viability, T/C [1]: 108%
- viability, T/C [2]: 86.7%
- viability, T/C [3]: 44.5%
- viability, T/C [4]: 34.3%
- viability, T/C (second compound 0.1 µM, first compound 0.00316 µM): 102%
- viability, T/C (second compound 0.1 µM, first compound 0.01 µM): 97.4%
- viability, T/C [5]: 85.7%
- viability, T/C [6]: 93.4%
- viability, T/C [7]: 65.4%
- viability, T/C [8]: 31.2%
- viability, T/C (second compound 0.316 µM, first compound 0.00316 µM): 97.4%
- viability, T/C (second compound 0.316 µM, first compound 0.01 µM): 107%
- viability, T/C [9]: 91.7%
- viability, T/C [10]: 92.4%
- viability, T/C [11]: 67.8%
- viability, T/C [12]: 31.3%
- viability, T/C (second compound 1 µM, first compound 0.00316 µM): 96.8%
- viability, T/C (second compound 1 µM, first compound 0.01 µM): 90%
- viability, T/C [13]: 92.5%
- viability, T/C [14]: 76.7%
- viability, T/C [15]: 58.4%
- viability, T/C [16]: 27.8%
- viability, T/C (second compound 3.16 µM, first compound 0.00316 µM): 98.1%
- viability, T/C (second compound 3.16 µM, first compound 0.01 µM): 91.1%
- viability, T/C [17]: 93.8%
- viability, T/C [18]: 90.2%
- viability, T/C [19]: 50.9%
- viability, T/C [20]: 30.9%
- viability, T/C (second compound 10 µM, first compound 0.00316 µM): 109%
- viability, T/C (second compound 10 µM, first compound 0.01 µM): 90.1%
- viability, T/C [21]: 90.2%
- viability, T/C [22]: 83.8%
- viability, T/C [23]: 40.9%
- viability, T/C [24]: 26.9%

SMILES: CC1COCCN1c1cc(C2(S(C)(=N)=O)CC2)nc(-c2ccnc3[nH]ccc23)n1 (centres undefined) + Cc1cccc(N(C)C(=O)C2C(O)CCN2c2nc(C)cc(C(F)(F)F)c2C#N)c1
- IC50 (second compound 0.0316 µM): > 10000 nM
- IC50 (second compound 0.1 µM): > 10000 nM
- IC50 (second compound 0.316 µM): > 10000 nM
- IC50 (second compound 1 µM): > 10000 nM
- IC50 (second compound 3.16 µM): > 10000 nM
- IC50 (second compound 10 µM): > 10000 nM
- viability, T/C [1]: 88.5%
- viability, T/C [2]: 104%
- viability, T/C [3]: 94.8%
- viability, T/C [4]: 99.7%
- viability, T/C (second compound 0.0316 µM, first compound 3.16 µM): 101%
- viability, T/C (second compound 0.0316 µM, first compound 10 µM): 69.1%
- viability, T/C [5]: 102%
- viability, T/C [6]: 95.1%
- viability, T/C [7]: 101%
- viability, T/C [8]: 101%
- viability, T/C (second compound 0.1 µM, first compound 3.16 µM): 95.6%
- viability, T/C (second compound 0.1 µM, first compound 10 µM): 68.2%
- viability, T/C [9]: 94.9%
- viability, T/C [10]: 98.9%
- viability, T/C [11]: 96.8%
- viability, T/C [12]: 102%
- viability, T/C (second compound 0.316 µM, first compound 3.16 µM): 89.1%
- viability, T/C (second compound 0.316 µM, first compound 10 µM): 62%
- viability, T/C [13]: 113%
- viability, T/C [14]: 102%
- viability, T/C [15]: 98.2%
- viability, T/C [16]: 101%
- viability, T/C (second compound 1 µM, first compound 3.16 µM): 97%
- viability, T/C (second compound 1 µM, first compound 10 µM): 69.1%
- viability, T/C [17]: 102%
- viability, T/C [18]: 96%
- viability, T/C [19]: 91.5%
- viability, T/C [20]: 104%
- viability, T/C (second compound 3.16 µM, first compound 3.16 µM): 86.4%
- viability, T/C (second compound 3.16 µM, first compound 10 µM): 74.7%
- viability, T/C [21]: 114%
- viability, T/C [22]: 111%
- viability, T/C [23]: 103%
- viability, T/C [24]: 111%
- viability, T/C (second compound 10 µM, first compound 3.16 µM): 95.7%
- viability, T/C (second compound 10 µM, first compound 10 µM): 71.7%
